Experimental data published in patent US6262305A, “Process and intermediates for preparing 3-(substituted phenyl)-5-(thienyl or furyl)-1,2,4-triazole compounds” (priority 1999, dated 2001).

Test system: Cotton Aphid
Test: Seed Treatment Test vs. Cotton Aphid on Squash
Assay type: in vivo, Aphis gossypii
Method: Seed Treatment Test vs. Cotton Aphid on Squash
Four-inch pots were filled two-thirds full with sieved soil mix (70 sand/30 pulverized soil). Compound was applied as a suspension to the center in 4 ml volume. Squash seed placed in the applied chemical zone was covered with soil mix 1 cm deep. […] The plants were then infested with aphids. Four days later, aphid counts were made.

SMILES	% Ctrl., cotton aphid on Squash - 1st True Leaf (0.8 mg/pot)	Cotton aphid counts on Squash - 1st True Leaf, Mean (0.8 mg/pot)	% Ctrl., cotton aphid on Squash - cotyledon (0.8 mg/pot)	Cotton aphid counts on Squash - cotyledon, Mean (0.8 mg/pot)	% Ctrl., cotton aphid on Squash - 1st True Leaf (3.2 mg/pot)	Cotton aphid counts on Squash - 1st True Leaf, Mean (3.2 mg/pot)	% Ctrl., cotton aphid on Squash - cotyledon (3.2 mg/pot)	Cotton aphid counts on Squash - cotyledon, Mean (3.2 mg/pot)	% Ctrl., cotton aphid on Squash - 1st True Leaf (12.8 mg/pot)	Cotton aphid counts on Squash - 1st True Leaf, Mean (12.8 mg/pot)	% Ctrl., cotton aphid on Squash - cotyledon (12.8 mg/pot)	Cotton aphid counts on Squash - cotyledon, Mean (12.8 mg/pot)	% Ctrl., cotton aphid on Squash - 1st True Leaf (0.05 mg/pot)	Cotton aphid counts on Squash - 1st True Leaf, Mean (0.05 mg/pot)	% Ctrl., cotton aphid on Squash - cotyledon (0.05 mg/pot)	Cotton aphid counts on Squash - cotyledon, Mean (0.05 mg/pot)	% Ctrl., cotton aphid on Squash - 1st True Leaf (0.2 mg/pot)	Cotton aphid counts on Squash - 1st True Leaf, Mean (0.2 mg/pot)	% Ctrl., cotton aphid on Squash - cotyledon (0.2 mg/pot)	Cotton aphid counts on Squash - cotyledon, Mean (0.2 mg/pot)
Cn1nc(-c2c(F)cccc2Cl)nc1-c1sc(Cl)c(Cl)c1Cl [Compound 2, 3-(2-chloro-6-fluorophenyl)-5-(3,4,5-trichlorothien-2-yl)-1-methyl[1,2,4]triazole]	85.8%	12.0	54.4%	48.0	95.9%	3.5	93.1%	7.3	96.1%	3.3	93.3%	7.0	–	–	–	–	–	–	–	–
O=[N+]([O-])NC1=NCCN1Cc1ccc(Cl)nc1 [Imidacloprid, reference compound]	100.0%	0.0	100%	0	–	–	–	–	–	–	–	–	58.5%	35.0	97.6%	2.5	88.4%	9.8	100%	0
Cn1nc(-c2c(Cl)cccc2Cl)nc1-c1sc(Cl)c(Cl)c1Cl [Compound 45, 3-(2,6-dichlorophenyl)-5-(3,4,5-trichlorothien-2-yl)-1-methyl[1,2,4]triazole]	51.7%	40.8	0%	165.5	77.8%	18.8	52.3%	50.3	90.2%	8.3	24.0%	80.0	–	–	–	–	–	–	–	–
